# Structures can show the parent of a compound that is named as a salt. Where two headings read alike, the source gives them in different places.
# Columns and labels:
# [1] = target: T1, α1A Human Adrenergic Receptor (Homo sapiens, UniProt P25100); test: Radioligand binding, [3H]prazosin, cloned human α1A adrenergic receptor
# T1 construct: The entire coding region of α1A (1719 bp); expressed in transfected cells
# T1 sequence (P25100 1-572): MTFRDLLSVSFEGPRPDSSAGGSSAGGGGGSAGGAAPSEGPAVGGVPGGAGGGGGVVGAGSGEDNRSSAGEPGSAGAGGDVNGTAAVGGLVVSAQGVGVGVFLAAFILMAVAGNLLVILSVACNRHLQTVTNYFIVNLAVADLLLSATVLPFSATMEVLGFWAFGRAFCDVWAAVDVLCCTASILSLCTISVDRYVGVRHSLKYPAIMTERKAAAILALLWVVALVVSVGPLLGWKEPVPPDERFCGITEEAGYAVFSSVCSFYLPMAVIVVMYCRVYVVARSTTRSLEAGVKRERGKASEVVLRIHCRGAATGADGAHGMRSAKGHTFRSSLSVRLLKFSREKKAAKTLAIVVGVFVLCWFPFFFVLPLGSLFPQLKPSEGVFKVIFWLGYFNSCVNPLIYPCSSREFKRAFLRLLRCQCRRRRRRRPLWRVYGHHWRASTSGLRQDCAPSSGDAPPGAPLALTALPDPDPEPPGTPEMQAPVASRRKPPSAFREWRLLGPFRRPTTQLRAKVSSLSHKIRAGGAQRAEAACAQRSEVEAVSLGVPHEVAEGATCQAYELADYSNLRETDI
# Summary of the method: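 Competition binding used membrane preparations of transfected LM(tk−) cells and the α1 antagonist [3H]prazosin at 0.5 nM, incubated 20 min at 37° C in Tris-HCl buffer, pH 7.5.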
# [2] = target: T2, α1C Human Adrenergic Receptor (Homo sapiens, UniProt P35348); test: Radioligand binding, [3H]prazosin, cloned human α1C adrenergic receptor
# T2 construct: The entire coding region of α1C (1401 bp); expressed in transfected cells
# T2 sequence (P35348 1-466): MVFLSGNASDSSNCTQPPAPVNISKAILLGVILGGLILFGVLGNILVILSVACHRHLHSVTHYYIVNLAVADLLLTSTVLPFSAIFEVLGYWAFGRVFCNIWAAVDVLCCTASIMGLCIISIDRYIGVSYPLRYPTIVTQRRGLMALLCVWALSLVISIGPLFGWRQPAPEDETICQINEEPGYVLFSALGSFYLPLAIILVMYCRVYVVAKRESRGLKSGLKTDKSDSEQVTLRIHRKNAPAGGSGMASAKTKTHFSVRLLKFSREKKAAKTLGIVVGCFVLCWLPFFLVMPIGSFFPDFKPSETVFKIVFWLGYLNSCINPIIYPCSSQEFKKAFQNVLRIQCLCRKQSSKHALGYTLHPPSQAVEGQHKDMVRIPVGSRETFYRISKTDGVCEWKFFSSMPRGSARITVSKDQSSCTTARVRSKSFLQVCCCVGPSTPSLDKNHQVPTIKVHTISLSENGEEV
# Summary of the method: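 Stably transfected mouse LM(tk−) fibroblast membranes bearing the cloned human α1C adrenoceptor served as receptor source. Specific binding was taken as the portion of 0.5 nM [3H]prazosin displaceable by 10 μM phentolamine after 20 min at 37° C., pH 7.5, in Mg2+/ascorbate-containing Tris buffer.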
# α2C receptor = target: T3, α2C receptor (Homo sapiens, UniProt P18825); test: Competition binding, [3H]rauwolscine, human α2C receptor
# T3 construct: host or cells: LM(tk-) cells, line L-α2C
# T3 sequence (P18825 1-462): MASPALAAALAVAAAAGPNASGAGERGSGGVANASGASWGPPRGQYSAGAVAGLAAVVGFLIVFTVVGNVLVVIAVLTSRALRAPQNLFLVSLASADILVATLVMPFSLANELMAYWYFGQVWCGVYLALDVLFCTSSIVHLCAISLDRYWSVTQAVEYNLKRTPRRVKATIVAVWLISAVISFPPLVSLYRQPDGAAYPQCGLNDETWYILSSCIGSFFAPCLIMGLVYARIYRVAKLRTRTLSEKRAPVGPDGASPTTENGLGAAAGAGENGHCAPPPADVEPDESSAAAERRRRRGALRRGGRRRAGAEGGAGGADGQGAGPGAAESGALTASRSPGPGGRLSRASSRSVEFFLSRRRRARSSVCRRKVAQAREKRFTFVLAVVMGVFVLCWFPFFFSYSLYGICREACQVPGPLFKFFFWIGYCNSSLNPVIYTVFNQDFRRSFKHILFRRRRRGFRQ
# Summary of the method: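 Using 25 mM glycylglycine buffer at pH 7.6 (room temperature), membranes from LM(tk−) cells carrying α2A, α2B or α2C were competed against 0.5 nM [3H]rauwolscine to equilibrium. Separation was by GF/B filtration; phentolamine (10 μM) set nonspecific binding.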
# [3] = [3H]prazosin, cloned human receptor, LM(tk-) cell membranes, mean, read-out: PKi alpha-1 1a (converted)
# [4] = cloned human receptor, LM(tk-) cell membranes, mean, read-out: PKi alpha-1 1c (converted)
# [5] = [3H]rauwolscine, human receptor, LM(tk-) cell lysates, mean, read-out: PKi alpha-2 2c (converted)
compound,measurement,setting,value
"CCOC(=O)C1(c2ccccc2)CCN(CCCNC(=O)C2=C(COCCN)NC(C)=C(C(C)=O)C2c2ccc3c(c2)OCO3)CC1 (stereo not drawn) [Example 244, 5-Acetyl-2-((2-aminoethyl)oxy)methyl-3-(N-(3-(4-ethoxycarbonyl-4-phenylpiperidin-1-yl)propyl)) carboxamido-1,4-dihydro-6-methyl-4-(3,4-methylenedioxy) phenylpyridine]",Ki,"[1]; [3H]prazosin, cloned human α1A receptor, LM(tk-) cell membranes, read-out: PKi alpha-1 1a (converted)",851 nM
same,Ki,"[2]; cloned human α1C receptor, LM(tk-) cell membranes, read-out: PKi alpha-1 1c (converted)",3.47 nM
same,Ki,"α2C receptor; [3H]rauwolscine, human α2C receptor, LM(tk-) cells, read-out: PKi alpha-2 2c (converted)",97.7 nM
"COC(=O)C1=C(C)NC(C)=C(C(=O)NCCCCN2CCC(c3ccccc3)(c3ccccc3)CC2)C1c1ccc([N+](=O)[O-])cc1.Cl.O (stereo not drawn) [Example 53, 1,4-Dihydro-3-methoxycarbonyl-2,6-dimethyl-4-(4-nitrophenyl)-5-{N-[4-(4,4-diphenylpiperidin-1-yl)butyl]}carboxamidopyridine hydrochloride hydrate]",pKi alpha-1 1a,"[1]; [3H]prazosin, cloned human receptor in LM(tk-) cell membranes, SEM and n in lines below",6.49
same,pKi alpha-1 1c,"[2]; cloned human receptor in LM(tk-) cell membranes, SEM and n in lines below",7.83
same,pKi alpha-2 2c,"α2C receptor; [3H]rauwolscine, LM(tk-) cell line L-α2C, SEM and n in lines below",6.67
"COC(=O)C1(c2ccccc2)CCN(CCCNC(=O)C2=C(COCCN=[N+]=[N-])NC(C)=C(C(N)=O)C2c2ccc([N+](=O)[O-])cc2)CC1 (stereo not drawn) [Example 183, 2-[(2-Azidoethoxy)methyl]-5-carboxamido-1,4-dihydro-3-{N-[3-(4-methoxycarbonyl-4-phenylpiperidin-1-yl)propyl]}carboxamido-6-methyl-4-(4-nitrophenyl)pyridine]",Ki,[1]; [3],501 nM
same,Ki,[2]; [4],0.851 nM
same,Ki,α2C receptor; [5],437 nM
"COC(=O)C1=C(C)NC(C)=C(C(=O)NCCCN2CCC(c3ccccc3)CC2)C1c1ccc([N+](=O)[O-])cc1 (single isomer, unassigned; (-)) [(−)-45, 1,4-Dihydro-3-methoxycarbonyl-2,6-dimethyl-4-(4-nitrophenyl)-5-{N-[3-(4-phenylpiperidin-1-yl)propyl]}carboxamidopyridine hydrochloride hemihydrate]",Ki,"[1]; [3H]prazosin, cloned human receptor in LM(tk-) cell membranes, SEM and n in lines below, read-out: pKi alpha-1 1a (converted)",40.7 nM
same,Ki,"[2]; cloned human receptor in LM(tk-) cell membranes, SEM and n in lines below, read-out: pKi alpha-1 1c (converted)",0.182 nM
same,Ki,"α2C receptor; [3H]rauwolscine, LM(tk-) cell line L-α2C, SEM and n in lines below, read-out: pKi alpha-2 2c (converted)",13.8 nM
CCC1=C(C(N)=O)C(c2ccc([N+](=O)[O-])cc2)C(C(=O)NCCCN2CCC(C(=O)OC)(c3ccccc3)CC2)=C(CC)N1 (stereo not drawn) [Example 200],Ki,[1]; PKi alpha-1 1a,3310 nM
same,Ki,[2]; [4],4.37 nM
same,Ki,α2C receptor; PKi alpha-2 2c,1620 nM
"COC(=O)C1=C(C)NC(CCCCN)=C(C(=O)NCCCN2CCC(c3ccccc3)(c3ccccc3)CC2)C1c1ccc([N+](=O)[O-])cc1 (stereo not drawn) [Example 170, 2-(4-Aminobutyl)-1,4-dihydro-5-methoxycarbonyl-6-methyl-4-(4-nitrophenyl)-3-{N-[3-(4,4-diphenylpiperidin-1-yl)propyl]}carboxamidopyridine]",Ki,[1]; PKi alpha-1 1a,295 nM
same,Ki,[2]; [4],1.26 nM
same,Ki,α2C receptor; PKi alpha-2 2c,4900 nM
"CCOC(=O)C1(c2ccccc2)CCN(CCCNC(=O)C2=C(COCCN)NC(CC)=C(C(N)=O)C2c2ccc([N+](=O)[O-])cc2)CC1 (stereo not drawn) [Example 193, 2-[(2-Aminoethoxy)methyl]-5-carboxamido-3-{N-[3-(4-ethoxycarbonyl-4-phenylpiperidin-1-yl)propyl]}carboxamido-1,4-dihydro-6-ethyl-4-(4-nitrophenyl)pyridine]",Ki,[1]; [3],2880 nM
same,Ki,[2]; [4],1.58 nM
same,Ki,α2C receptor; [5],631 nM

# From patent US6608086B2, “Dihydropyridines and new uses thereof” (Synaptic Pharmaceutical Corporation, priority 1993, dated 2003)
